# Experimental data from patent US9539323B2, “Methods and compositions for malic enzyme 2 (ME2) as a target for cancer therapy” (Beth Israel Deaconess Medical Center, Inc., priority 2010, dated 2017).
# Tests used:
# Format in all cases: cell-based, human
# [1] = system: K562 cells; assay: Erythroid differentiation assay (glycophorin A, CD10, benzidine hemoglobin staining); conditions: for rescue of differentiation mediated by ME2 depletion: supplementation
# Method: Erythroid differentiation assay: Induction of surface expression of the erythroid marker glycophorin A and CD10 was determined by indirect immunofluorescence and flow cytometry, as described previously by Hatzivassiliou et al., in Cancer Cell. 8: 311-321 (2005). In brief, K562 cells with or without ME2 knockdown were stained with a mouse FITC-conjugated anti-glycophorin A or CD10 antibody (Dako) at 1:100 dilution in medium plus 10% FCS for 30 min at 4° C. Control cells were stained with FITC-conjugated IgG. Cells expressing hemoglobin were determined by benzidine staining, as previously described by Park et al., in Cell Growth Differ. 12: 481-486 (2001). The benzidine dihydrochloride stock solution contained 0.2% w/v benzidine hydrochloride in 3% acetic acid. Cells (1×10^5) were washed twice in ice-cold PBS. The cell pellets were resuspended in ice-clod PBS. Before staining, 5 μl of 30% H2O2 was added to 1 ml of a stock solution of benzidine solution. The cell suspensions were mixed with the benzidine solution in a 1:1 ratio and counted in a hemocytometer after 30 min. Blue cells were considered to be positive for hemoglobin. The proportion of blue-stained cells was quantified under light microscopy. A total of 500 cells were counted for each sample in triplicate. Shown is the mean±SD of a representative experiment.
# [2] = system: K562 cells; assay: Cell death assessed by flow cytometry; conditions: 72 h
# Method: A: Cells were treated with different concentrations of amino-oxyacetate and expression levels of the erythroid marker glycophorin A (GPA) on the surface of K562 cells were assessed using a mouse FITC-conjugated anti-human glycophorin A antibody. Each histogram is representative of three experiments. B: K562 cells with or without ME2 knockdown were incubated with different concentrations of AOA for 72 h. Cell death was assessed by flow cytometry. Top: pLKO; Bottom: shME2-3. […] C: Cells were treated with different concentrations of malate and expression levels of the erythroid marker glycophorin A on the surface of K562 cells were assessed using a mouse FITC-conjugated anti-human glycophorin A antibody. Each histogram is representative of three experiments.
# K562 cells with or without ME2 knockdown were incubated with 0.1 mM AOA plus 2 mM α-KG for 48 h. Cell death was assessed by flow cytometry. A: pLKO K562 cells without any treatment. B: pLKO K562 cells treated with 0.1 mM AOA for 48 h. C: pLKO K562 cells treated with 0.1 mM AOA combined with 2 mM α-KG.
# [3] = system: K562 cells; assay: Proliferation assay (Coulter counter); conditions: for rescue of ME2 knockdown cell cycle phenotype (decreased proliferation): supplementation
# Method: Proliferation assay: Control and ME2 deficient cell lines were plated in 6-well plate at a density of 1×10^5 cells/well and maintained at 37° C. in a 5% CO2 incubator. After 24, 72, 120 and 168 hours of initial plating, 0.5 ml cells were diluted into 10 ml of Hanks' buffer and counted by Coulter counter.
# [4] = system: phospho-ERK1/2, phospho-AKT, GATA-1, vimentin; assay: Western blot of signaling pathways, GATA-1 and vimentin in K562 cells; conditions: K562, 10 μM
# Method: K562 cells with or without ME2 knockdown were lysed with RIPA lysis buffer (50 mM Tris-HCl, pH 8.0, 150 mM NaCl, 1% Triton X-100, 1 mM EGTA) containing 1 mM PMSF and a protease inhibitor cocktail and subjected to centrifugation at 15,000×g for […] at 4° C. to remove debris. After lysis, equal aliquots of protein lysate were resolved by Western blotting. Western blots were probed with anti-phospho-ERK1/2, anti-ERK1, anti-p-AKT308, anti-AKT472, anti-AKT1/2, anti-GATA-1, anti-vimentin, and anti-β-tubulin. A: Phospho-ERK1/2 activity in ME2 knockdown K562 cells. B: Phospho-AKT detection in ME2 knockdown K562 cells. C: 10 μM PI3K inhibitor, LY294002, inhibits p-AKT activity. D: LY294002 rescue of differentiation in ME2 knockdown K562 cells. E: The effect of LY294002 on the proliferation of K562 cells with (third to sixth bars in graph) or without ME2 (first to second bars in graph) knockdown. F: The expression difference of GATA-1 and vimentin in ME2 knockdown cells. Data are representative of three independent experiments. […] Membranes were washed in PBS plus 0.1% Tween 20 and probed with anti-rabbit or anti-mouse HRP-conjugated secondary antibody (both at 1:10,000 dilution), and proteins were detected using the ECL Plus chemiluminescence detection reagent (Amersham Biosciences).
# [5] = system: K562 cells; assay: Determination of cellular reactive oxygen species (CM-H2DCF-DA, MitoSOX); conditions: ME2 knockdown K562 cells, 5.0 mM
# Method: Determination of cellular reactive oxygen species (ROS): Intracellular ROS production was measured by staining with CM-H2DCFDA. CM-H2DCFDA is a cell-permeant indicator for ROS that is nonfluorescent until removal of the acetate groups by intracellular esterases and oxidation occurs within the cell. The procedure for measuring ROS was carried out as described in Trachootham et al., in Cancer Cell. 10: 241-252 (2006), with minor modifications. Briefly, K562 cells transduced with shRNA lentiviral particles or control vector were selected with puromycin for 2 weeks, […], followed by flow cytometry using a FACSCalibur equipped with CellQuest Pro software. Superoxide radicals (O2^−) were measured separately using the MitoSOX™ reagent according to the manufacturer's protocol (Invitrogen). In brief, cells with or without ME2 knockdown were incubated with 5 μM MitoSOX™ reagent for 10 minutes at 37° C., then washed three times and observed under a fluorescence microscope using the Rhodamine filter and Axiovision software for capturing images (Zeiss, Germany).
compound,measurement,setting,value
"NOCC(=O)O [AOA, amino-oxyacetate]",erythroid differentiation (glycophorin staining),"[1]; K562, 0.2 to 0.8 mM in medium",could not induce erythroid differentiation
same,cell death,[2]; K562 with ME2 silenced (shME2-3),induced leukemia cell death (mainly apoptotic)
same,cell death,[2]; wild type K562 (pLKO),induced leukemia cell death (mainly necrotic)
"O=c1cc(N2CCOCC2)oc2c(-c3ccccc3)cccc12 [LY294002, 2-morpholin-4-yl-8-phenylchromen-4-one]",rescue of proliferation inhibition,[3]; ME2 knockdown K562 cells,does not rescue proliferation inhibition in ME2 knockdown cells as effectively
same,sensitivity of proliferation inhibition to LY294002,[3]; ME2 knockdown vs parental K562 cells,more sensitive
same,differentiation mediated by ME2 silencing,"[1]; ME2 knockdown K562 cells, 10 μM",rescues the differentiation
same,p-AKT activity,[4],significantly inhibit p-AKT activity
"CC(=O)N[C@@H](CS)C(=O)O [NAC, N-acetyl cysteine]",differentiation induced by ME2 depletion,"[1]; ME2 knockdown K562 cells, 5.0 mM",without affecting differentiation
same,endogenous ROS,[5],completely inhibited
Nc1ccn([C@@H]2O[C@H](CO)[C@@H](O)[C@H]2O)c(=O)n1 [cytidine],rescue of ME2 knockdown cell cycle phenotype (decreased proliferation),[3]; ME2 knockdown K562 cells,nor were we able to rescue
same,rescue of differentiation mediated by ME2 depletion,[1]; ME2 knockdown K562 cells,could not rescue the differentiation
O=C(O)CC(O)C(=O)O (centres unmarked) [malate],erythroid differentiation,"[1]; wild type K562, 0.1 to 10 mM in medium",could not induce erythroid differentiation
O=c1ccn([C@@H]2O[C@H](CO)[C@@H](O)[C@H]2O)c(=O)[nH]1 [uridine],rescue of ME2 knockdown cell cycle phenotype (decreased proliferation),[3]; ME2 knockdown K562 cells,nor were we able to rescue
same,rescue of differentiation mediated by ME2 depletion,[1]; ME2 knockdown K562 cells,could not rescue the differentiation
